This is an account of results in ChEMBL document CHEMBL4725370, “Discovery of Proteolysis-Targeting Chimera Molecules that Selectively Degrade the IRAK3 Pseudokinase” (J Med Chem, 2020).

Each structure is given as a SMILES string. pIC50, pKd: −log10 of the molar value. Activity calls are given as the source filed them. The calls are words filed in the database; no cut-off is given here. A value given as a limit tells only on which side of the number the result lay.

In data set [1] the target is Protein cereblon/Interleukin-1 receptor-associated kinase 4 (Homo sapiens) (UniProt Q9NWZ3+Q96SW2). As to the kind of experiment: Protac activity at CRBN/IRAK4 in LPS-induced human THP1 cells assessed as induction of IRAK4 degradation at 0.1 uM measured after 6 hrs by HPLC-MS based global proteomic analysis. As to conditions: THP-1. The class given is cell-based.
Sequence of Protein cereblon/Interleukin-1 receptor-associated kinase 4 (Homo sapiens) (Q96SW2 whole entry, looked up, one chain of several): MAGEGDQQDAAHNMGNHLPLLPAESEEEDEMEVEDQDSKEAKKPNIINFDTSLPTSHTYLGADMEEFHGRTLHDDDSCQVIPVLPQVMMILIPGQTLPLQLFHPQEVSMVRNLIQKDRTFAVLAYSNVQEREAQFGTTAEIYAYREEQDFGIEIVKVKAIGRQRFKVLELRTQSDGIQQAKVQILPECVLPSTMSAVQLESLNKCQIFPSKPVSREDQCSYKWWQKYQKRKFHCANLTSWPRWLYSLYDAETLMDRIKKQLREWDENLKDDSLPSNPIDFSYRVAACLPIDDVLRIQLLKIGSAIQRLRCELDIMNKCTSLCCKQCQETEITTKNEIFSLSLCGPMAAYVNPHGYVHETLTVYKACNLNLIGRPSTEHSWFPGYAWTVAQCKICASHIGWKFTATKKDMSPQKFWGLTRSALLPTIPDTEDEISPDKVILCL
Data set [2] is described as follows: Octanol/buffer partition coefficient, log D of the compound at pH 7.4 by shake-flask method. The class given is physicochemical.
In data set [3] the target is T1, Interleukin-1 receptor-associated kinase 4 (Homo sapiens, UniProt Q9NWZ3).
T1 sequence (Q9NWZ3 whole entry): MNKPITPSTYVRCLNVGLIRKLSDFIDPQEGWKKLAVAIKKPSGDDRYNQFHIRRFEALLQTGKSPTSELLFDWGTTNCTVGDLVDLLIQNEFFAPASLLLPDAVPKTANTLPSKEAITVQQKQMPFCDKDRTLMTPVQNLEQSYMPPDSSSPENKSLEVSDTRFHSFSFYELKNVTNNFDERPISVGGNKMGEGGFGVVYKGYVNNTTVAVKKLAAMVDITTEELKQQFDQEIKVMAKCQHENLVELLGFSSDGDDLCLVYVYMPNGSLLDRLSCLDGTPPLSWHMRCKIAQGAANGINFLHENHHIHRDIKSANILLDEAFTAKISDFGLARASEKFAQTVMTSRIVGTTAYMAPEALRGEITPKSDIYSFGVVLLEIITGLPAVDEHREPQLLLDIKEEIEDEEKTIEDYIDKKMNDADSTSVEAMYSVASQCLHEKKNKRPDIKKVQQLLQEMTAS
As to the kind of experiment: Displacement of polymer supported probe 25 binding to IRAK4 in human THP-1 cell lysates preincubated for 45 mins under shaking condition followed by probe addition and measured after 30 mins by mass spectrometry based chemoproteomic analysis. As to conditions: read-out: Kd(app). The class given is subcellular.

Data set [4] has as its target T1, Interleukin-1 receptor-associated kinase 4. In words: Inhibition of recombinant human full-length His-tagged IRAK4 expressed in baculovirus expression system using 5-FAM-IPTSPITTTYFFFKKK-COOH as substrate measured after 240 mins by mobility shift assay.
The target of data set [5] is T2, Protein cereblon/Interleukin-1 receptor-associated kinase 3 (Homo sapiens, UniProt Q9Y616+Q96SW2). In words: Protac activity at CRBN/IRAK3 in human THP1 cells assessed as induction of IRAK3 degradation at 0.1 uM measured after 24 hrs by Western blot analysis. The class given is cell-based. As to conditions: THP-1.
T2 sequence (Q96SW2 whole entry, looked up): as the sequence (Q96SW2 whole entry, looked up, one chain of several) above
T2 sequence (Q9Y616 whole entry, looked up): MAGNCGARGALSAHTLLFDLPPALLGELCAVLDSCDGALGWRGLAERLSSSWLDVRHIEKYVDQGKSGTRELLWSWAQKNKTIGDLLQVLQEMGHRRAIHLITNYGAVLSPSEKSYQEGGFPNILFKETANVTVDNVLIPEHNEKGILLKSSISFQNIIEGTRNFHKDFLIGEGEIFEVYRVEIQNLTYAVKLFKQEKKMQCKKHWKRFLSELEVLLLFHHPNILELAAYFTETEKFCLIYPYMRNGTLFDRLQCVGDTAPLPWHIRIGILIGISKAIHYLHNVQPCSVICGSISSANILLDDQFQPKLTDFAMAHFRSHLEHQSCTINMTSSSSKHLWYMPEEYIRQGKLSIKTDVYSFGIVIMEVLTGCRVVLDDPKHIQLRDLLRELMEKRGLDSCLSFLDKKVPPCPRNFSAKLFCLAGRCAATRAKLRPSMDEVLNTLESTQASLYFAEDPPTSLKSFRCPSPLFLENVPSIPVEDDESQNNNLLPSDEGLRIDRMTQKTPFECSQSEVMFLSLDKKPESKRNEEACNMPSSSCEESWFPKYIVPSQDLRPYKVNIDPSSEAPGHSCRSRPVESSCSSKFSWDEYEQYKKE
In data set [6] the target is NT-3 growth factor receptor (Homo sapiens, UniProt Q16288). In words: Inhibition of NTRK3 (unknown origin).
Sequence of NT-3 growth factor receptor (Q16288 whole entry): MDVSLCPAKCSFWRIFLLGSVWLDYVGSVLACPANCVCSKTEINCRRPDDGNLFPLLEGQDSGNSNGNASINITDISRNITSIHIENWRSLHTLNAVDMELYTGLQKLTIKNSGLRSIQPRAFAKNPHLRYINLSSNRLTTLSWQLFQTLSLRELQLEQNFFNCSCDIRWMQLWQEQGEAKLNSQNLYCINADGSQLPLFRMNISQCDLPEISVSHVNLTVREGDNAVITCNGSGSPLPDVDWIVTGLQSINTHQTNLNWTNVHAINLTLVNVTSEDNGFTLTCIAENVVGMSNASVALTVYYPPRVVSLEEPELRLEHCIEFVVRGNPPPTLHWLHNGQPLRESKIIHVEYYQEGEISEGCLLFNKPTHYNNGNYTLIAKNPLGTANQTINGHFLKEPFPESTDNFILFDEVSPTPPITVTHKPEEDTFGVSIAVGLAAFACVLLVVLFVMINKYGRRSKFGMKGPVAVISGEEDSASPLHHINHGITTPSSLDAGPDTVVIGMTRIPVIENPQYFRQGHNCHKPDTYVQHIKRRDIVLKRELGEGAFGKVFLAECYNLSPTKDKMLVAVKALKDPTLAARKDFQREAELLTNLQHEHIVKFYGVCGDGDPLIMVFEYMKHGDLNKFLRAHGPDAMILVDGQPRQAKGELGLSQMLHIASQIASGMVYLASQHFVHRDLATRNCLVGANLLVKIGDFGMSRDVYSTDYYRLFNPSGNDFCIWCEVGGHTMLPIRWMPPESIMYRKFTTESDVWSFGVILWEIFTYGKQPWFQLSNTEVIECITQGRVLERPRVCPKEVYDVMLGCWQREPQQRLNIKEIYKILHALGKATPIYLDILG
The target in data set [7] is Cyclin-C/Cyclin-dependent kinase 19 (Homo sapiens) (UniProt Q9BWU1+P24863). In words: Inhibition of CDK11/cyclin C (unknown origin) at 0.1 uM relative to control. Format: protein-complex assay.
In data set [8] the test system is THP-1. As to the kind of experiment: Selectivity ratio of Kd(app) for displacement of polymer supported probe 25 binding to IRAK1 in human THP-1 cell lysates to Kd(app) for displacement of polymer supported probe 25 binding to IRAK3 in human THP-1 cell lysates.
In data set [9] the target is T2, Protein cereblon/Interleukin-1 receptor-associated kinase 3. As to the kind of experiment: Protac activity at CRBN/IRAK3 in LPS-induced human THP1 cells assessed as induction of IRAK3 degradation after 16 hrs by Western blot analysis relative to control. As to conditions: THP-1. Format: cell-based.
The target is the same in data set [10]. In words: Protac activity at CRBN/IRAK3 in human PBMC derived primary macrophages assessed as induction of IRAK3 degradation at 0.3 uM measured after 8 to 32 hrs by Western blot analysis. The class given is tissue-based. As to conditions: Primary macrophage, time hrs 8-32.
Data set [11] has the same target. As to the kind of experiment: Protac activity at CRBN/IRAK3 in human THP1 cells assessed as induction of IRAK3 degradation at 0.1 uM measured after 6 hrs in presence of proteasome inhibitor MG132 by Western blot analysis. The class given is cell-based. As to conditions: THP-1.
Data set [12] deals with Protein cereblon/Interleukin-1 receptor-associated kinase 1 (Homo sapiens) (UniProt P51617+Q96SW2). As to the kind of experiment: Protac activity at CRBN/IRAK1 in LPS-induced human THP1 cells assessed as induction of IRAK1 degradation at 0.1 uM measured after 6 hrs by HPLC-MS based global proteomic analysis. As to conditions: THP-1. Format: cell-based.
Sequence of Protein cereblon/Interleukin-1 receptor-associated kinase 1 (Homo sapiens) (P51617 whole entry, looked up): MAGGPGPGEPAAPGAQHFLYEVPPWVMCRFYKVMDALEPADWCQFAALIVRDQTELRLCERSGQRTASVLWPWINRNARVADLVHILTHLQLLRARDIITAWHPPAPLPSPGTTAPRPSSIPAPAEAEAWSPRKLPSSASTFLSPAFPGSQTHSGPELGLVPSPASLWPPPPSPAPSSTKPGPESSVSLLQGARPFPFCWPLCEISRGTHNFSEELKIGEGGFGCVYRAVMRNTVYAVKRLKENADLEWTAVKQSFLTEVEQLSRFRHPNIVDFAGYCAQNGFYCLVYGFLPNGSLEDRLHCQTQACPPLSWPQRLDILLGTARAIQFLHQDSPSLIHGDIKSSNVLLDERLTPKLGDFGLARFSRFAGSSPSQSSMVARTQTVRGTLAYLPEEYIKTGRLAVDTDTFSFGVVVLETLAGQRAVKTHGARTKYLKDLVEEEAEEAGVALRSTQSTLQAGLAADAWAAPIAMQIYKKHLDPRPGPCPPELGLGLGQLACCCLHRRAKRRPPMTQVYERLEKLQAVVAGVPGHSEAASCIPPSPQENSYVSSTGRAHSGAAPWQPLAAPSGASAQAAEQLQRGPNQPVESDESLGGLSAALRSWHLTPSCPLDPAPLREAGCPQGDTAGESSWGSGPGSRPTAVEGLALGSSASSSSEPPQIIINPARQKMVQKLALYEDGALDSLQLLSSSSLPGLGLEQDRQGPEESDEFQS
Sequence of Protein cereblon/Interleukin-1 receptor-associated kinase 1 (Homo sapiens) (Q96SW2 whole entry, looked up): as the sequence (Q96SW2 whole entry, looked up, one chain of several) above
The target of data set [13] is Cyclin-dependent kinase 8 (Homo sapiens, UniProt P49336). As to the kind of experiment: Displacement of polymer supported probe 25 binding to CDK8 in human THP-1 cell lysates preincubated for 45 mins under shaking condition followed by probe addition and measured after 30 mins by mass spectrometry based chemoproteomic analysis. Format: subcellular. As to conditions: read-out: Kd(app).
Sequence of Cyclin-dependent kinase 8 (P49336 whole entry): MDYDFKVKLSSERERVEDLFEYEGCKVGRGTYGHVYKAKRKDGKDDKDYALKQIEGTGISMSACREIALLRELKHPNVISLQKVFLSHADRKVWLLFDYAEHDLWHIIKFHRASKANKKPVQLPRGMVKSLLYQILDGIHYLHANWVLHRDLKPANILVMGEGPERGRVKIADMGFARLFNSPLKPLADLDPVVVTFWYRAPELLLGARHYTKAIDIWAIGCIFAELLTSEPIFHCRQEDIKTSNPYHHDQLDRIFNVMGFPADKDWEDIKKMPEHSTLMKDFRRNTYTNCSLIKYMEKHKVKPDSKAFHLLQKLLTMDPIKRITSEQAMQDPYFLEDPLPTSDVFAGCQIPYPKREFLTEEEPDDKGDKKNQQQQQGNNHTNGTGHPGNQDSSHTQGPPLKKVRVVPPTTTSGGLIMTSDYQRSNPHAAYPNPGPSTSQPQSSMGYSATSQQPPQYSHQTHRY

Data set [14] concerns the target Interleukin-1 receptor-associated kinase 3 (Homo sapiens) (UniProt Q9Y616). As to the kind of experiment: Inhibition of IRAK3 (unknown origin) at 0.1 uM relative to control.
The target in data set [15] is T2, Protein cereblon/Interleukin-1 receptor-associated kinase 3. In words: Protac activity at CRBN/IRAK3 in human THP1 cells assessed as induction of IRAK3 degradation at 0.1 uM measured after 6 hrs in presence of IRAK3 ligand cis-1-(4-(4-((5-Isopropylpyrrolo[2,1-f][1,2,4]triazin-4-yl)amino)-cyclohexyl)piperazin-1-yl)ethanone by Western blot analysis. The class given is cell-based. As to conditions: THP-1.

For data set [16] the target is unchanged. In words: Protac activity at CRBN/IRAK3 in human THP1 cells assessed as induction of IRAK3 degradation at 0.1 uM measured after 2 to 72 hrs by Western blot analysis. As to conditions: THP-1, time hrs 2-72. The class given is cell-based.
Data set [17] has as its system THP-1. As to the kind of experiment: Selectivity ratio of Kd(app) for displacement of polymer supported probe 25 binding to CDK11 in human THP-1 cell lysates to Kd(app) for displacement of polymer supported probe 25 binding to IRAK3 in human THP-1 cell lysates.
The target in data set [18] is T3, Serine/threonine-protein kinase haspin (Homo sapiens, UniProt Q8TF76).
T3 sequence (Q8TF76 whole entry): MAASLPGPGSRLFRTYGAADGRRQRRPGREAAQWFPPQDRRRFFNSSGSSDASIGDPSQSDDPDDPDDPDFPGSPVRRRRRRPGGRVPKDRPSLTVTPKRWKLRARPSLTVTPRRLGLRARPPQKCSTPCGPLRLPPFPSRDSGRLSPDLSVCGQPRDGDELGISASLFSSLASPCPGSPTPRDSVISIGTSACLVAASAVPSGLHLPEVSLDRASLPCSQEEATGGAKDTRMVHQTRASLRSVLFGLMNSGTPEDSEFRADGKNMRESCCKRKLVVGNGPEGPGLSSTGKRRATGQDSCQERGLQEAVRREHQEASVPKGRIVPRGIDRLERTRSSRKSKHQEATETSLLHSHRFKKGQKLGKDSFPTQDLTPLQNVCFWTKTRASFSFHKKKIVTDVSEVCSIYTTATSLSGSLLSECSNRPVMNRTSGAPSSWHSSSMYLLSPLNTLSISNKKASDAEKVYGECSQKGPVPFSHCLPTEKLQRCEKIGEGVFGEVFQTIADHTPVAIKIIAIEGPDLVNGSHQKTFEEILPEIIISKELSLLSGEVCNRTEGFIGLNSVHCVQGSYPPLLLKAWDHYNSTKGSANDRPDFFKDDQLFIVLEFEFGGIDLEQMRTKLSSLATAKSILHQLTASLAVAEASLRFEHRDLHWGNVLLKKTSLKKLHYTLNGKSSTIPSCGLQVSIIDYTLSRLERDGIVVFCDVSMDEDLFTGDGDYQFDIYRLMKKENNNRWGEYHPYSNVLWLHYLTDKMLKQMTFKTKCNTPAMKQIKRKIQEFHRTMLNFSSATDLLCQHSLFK
In words: Inhibition of GSG2 (unknown origin).

Sequence of Interleukin-1 receptor-associated kinase 3 (Homo sapiens) (Q9Y616 whole entry): as the sequence (Q9Y616 whole entry, looked up) above

Take `CC(C)c1ccn2ncnc(N[C@H]3CC[C@@H](N4CCN(C(=O)CCC(=O)N5CCC(CCN6CCN(c7ccc8c(c7)C(=O)N(C7CCC(=O)NC7=O)C8=O)CC6)CC5)CC4)CC3)c12` (stereo partly drawn): the result in data set [1], in [11], in [12] and in data set [15] was inactive. The compound also gave a log distribution coefficient (logD) in data set [2] of 3.1. Also, the pKd in [3] was 5.44; in [13] it was 5.85. Further, the results for the pIC50 in [4], in [6] and in [18] were 5.85, 7.00 and 6.96, respectively. Moreover, the outcome in data set [5], in data set [10] and in data set [16] was Active. Further, the inhibition in data set [7] was determined as 82%; in data set [14] it was 93%. Further, the Selectivity ratio in data set [8] is 82; in data set [17], greater than 880. The maximum response (Emax) in [9] was 98%.
